From patent publication US9724391B2, “Combination preparation including a corticosteroid and exosomes” (ORTHOGEN AG, priority 2009, dated 2017)

How the values were obtained:
osteoarthritis = settings: in vivo; cited from earlier work
[1] = test system: patient with gonarthrosis ri, cartilage defects degree 2-4 according to Outerbridge; experiment: Case VIII: gonarthrosis ri, intraarticular injection into the right knee; type: in vivo, human; settings: triamcinolone 10-40 mg intraarticular (history); exosomes one-time intraarticular, after 4 weeks
Method: Case VIII: • Gonarthrosis ri with cartilage defects verified arthroscopically degree 2-4 according to Outerbridge. The patient wishes to delay surgery and joint replacement. History of intraarticular injection of triamcinolone in doses of 10-40 mg to no effect. Injection of 1 ml of exosomes prepared by means of the technique as described after incubation with IL-1Ra. […] Afterwards decision for an intraarticular injection into the right knee combined with 10 mg triamcinolone.

[2] = test system: patient with severe neurodermitis; experiment: Case IX: severe neurodermitis, intramuscular application; type: in vivo, human; settings: systemic intramuscular application, doses of 80 mg
Method: FIG. 1A to FIG. 1C show pictures of the feet of a neurodermitis patient whose case is described below as case IX (Example 4).
Case IX: • Severe dermatologically verified neurodermitis with strong changes, especially in the area of hands and feet. […] After that, attempt of intramuscular application of 2 ml of exosomes in connection with 20 mg triamcinolone. […] Subsequent slight deterioration but still improvement compared to preliminary findings. FIG. 1A describes the dermatological changes at both feet immediately before treatment, FIG. 1B and FIG. 1C one week after treatment for the right/left foot.

[3] = test system: patient with severe Bechterew arthritis; experiment: Case X: severe Bechterew arthritis, injection into the affected joints; type: in vivo, human; settings: total dose 40 mg into all affected joints; for 1 week
Method: Case X • Severe Bechterew arthritis with iridocyclitis left eye. Patient is given prednisolone and MTX in changing doses as basic therapy. CRP 20_3 mg/l; left CFJ clearly swollen with +2 cm compared to the other side; left MCP and first knuckle 1st finger left clearly swollen and painful, right shoulder swollen, painful, abduction reduced by 30 degrees compared to normal. […] CRP within 1 week reduced from 20.3 mg/l to 2.9 mg/l.

[4] = test system: patient with severe therapy-resistant rheumatoid arthritis; settings: after one week; triamcinolone alone 10 mg to 40 mg intraarticular, combination with total 20 mg triamcinolone
Method: Injection of exosomes (after incubation with IL-1Ra) and admixing total amount of 20 mg triamcinolone in MCP2-5 ab. and both shoulders.

[5] = test system: patient with partial rotator cuff rupture and complete shoulder stiffness le; settings: before combination therapy
Method: Surgery appointment for the left shoulder was made. Here it should be tried to avoid surgery. […] 2 ml Orthokine were administered into the shoulder with 10 mg Anakinra and 10 mg triamcinolone via a syringe. […] The therapy was continued until day 4.

[6] = test system: patient with psoriasic arthritis; settings: cortisone 20-40 mg intraarticular, effect for some days; combination after a few days
[7] = test system: patient with complete alopecia; settings: systemic and local application, high doses (10-80 mg prednisolone)

For “Anakinra: recombinant human IL-1 receptor antagonist, amino acids 26-177, terminally L-methionylated, 153 amino acids”, the “effects in the treatment of osteoarthritis compared to a placebo treatment” value (osteoarthritis) is given as “did not show any effects”.
In the case of C[C@]12C=CC(=O)C=C1CC[C@H]1[C@@H]3C[C@@H](O)[C@](O)(C(=O)CO)[C@@]3(C)C[C@H](O)[C@@]12F [triamcinolone], the “clinical effect regarding pain and function of single agents” value [1] is reported as “to no effect”, the “duration of short-term effect” value [2] is reported as 1 week and the improvement [3] is reported as 20%. The “pain improvement / pain reduction” value [4] was 20%.
In the case of C[C@]12C=CC(=O)C=C1CC[C@@H]1[C@@H]2[C@@H](O)C[C@@]2(C)[C@H]1CC[C@]2(O)C(=O)CO [prednisolone], the “duration of short-term effect” value [2] is reported as 1 week.
For C[C@]12CCC(=O)C=C1CC[C@@H]1[C@@H]2C(=O)C[C@@]2(C)[C@H]1CC[C@]2(O)C(=O)CO [cortisone], the “outcome of numerous earlier injections into the left shoulder” value [5] was “without success”, the pain reduction [6] was 10-30% and the “effect of earlier therapy attempts on alopecia” value [7] was “without effect”.
